Experimental data published in PubChem BioAssay AID248 (DTP/NCI, 2004).
Values joined by “and” are separate entries in the source; they are usually repeats but may differ in a detail not shown here. Identical values can stand only once. Toxic doses and inconclusive results are not listed. Cut-off read from the data, not from the text of the source: active = T/C of 150% or more; inactive = T/C below 125%.

Test system: L1210 leukemia ip in BDF1 mice, survival T/C
Experiment: NCI In Vivo Anticancer Drug Screen. Data for tumor model L1210 Leukemia (intraperitoneal) in B6D2F1 (BDF1) mice
Details: endpoint: mean survival time, higher = longer survival
Outline: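 Transplanted-tumor mice were given test agent; controls received vehicle only. Survival readings from the two groups were divided (treated over control).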

[1] = dose: 75.0 mg/kg/injection, schedule: Q01DX001 (ip), vehicle: saline
[2] = dose: 200.0 mg/kg/injection, schedule: Q01DX001 (ip), vehicle: carboxymethylcellulose (CMC)
[3] = dose: 400.0 mg/kg/injection, schedule: Q01DX001 (ip), vehicle: carboxymethylcellulose (CMC)
[4] = dose: 100.0 mg/kg/injection, schedule: Q04DX002 (ip), vehicle: Klucel (hydroxypropylcellulose) (HPC)
[5] = dose: 200.0 mg/kg/injection, schedule: Q04DX002 (ip), vehicle: Klucel (hydroxypropylcellulose) (HPC)
[6] = dose: 100.0 mg/kg/injection, schedule: Q01DX001 (ip), vehicle: carboxymethylcellulose (CMC)
[7] = dose: 100.0 mg/kg/injection, schedule: Q04DX003 (ip), vehicle: saline with Tween-80
[8] = dose: 200.0 mg/kg/injection, schedule: Q04DX003 (ip), vehicle: saline with Tween-80
[9] = dose: 400.0 mg/kg/injection, schedule: Q04DX003 (ip), vehicle: saline with Tween-80
[10] = dose: 100.0 mg/kg/injection, schedule: Q04DX003 (ip), vehicle: Klucel (hydroxypropylcellulose) (HPC)
[11] = dose: 200.0 mg/kg/injection, schedule: Q04DX003 (ip), vehicle: Klucel (hydroxypropylcellulose) (HPC)
[12] = dose: 400.0 mg/kg/injection, schedule: Q04DX003 (ip), vehicle: Klucel (hydroxypropylcellulose) (HPC)
[13] = dose: 100.0 mg/kg/injection, schedule: Q01DX009 (ip), vehicle: Klucel (hydroxypropylcellulose) (HPC)
[14] = dose: 200.0 mg/kg/injection, schedule: Q01DX009 (ip), vehicle: Klucel (hydroxypropylcellulose) (HPC)
[15] = dose: 100.0 mg/kg/injection, schedule: Q01DX009 (ip), vehicle: saline
[16] = dose: 100.0 mg/kg/injection, schedule: Q04DX003 (ip), vehicle: saline
[17] = dose: 200.0 mg/kg/injection, schedule: Q04DX003 (ip), vehicle: saline
[18] = dose: 50.0 mg/kg/injection, schedule: Q01DX001 (ip), vehicle: saline
[19] = dose: 100.0 mg/kg/injection, schedule: Q01DX001 (ip), vehicle: saline
[20] = dose: 200.0 mg/kg/injection, schedule: Q01DX001 (ip), vehicle: saline

Measured: T/C

NCCSC1(O)C(=O)c2ccccc2C1=O
inactive: dose: 37.5 mg/kg/injection, schedule: Q04DX003 (ip), vehicle: saline 97 % of control | [1] 104 % of control | dose: 75.0 mg/kg/injection, schedule: Q04DX003 (ip), vehicle: saline 116 % of control | dose: 150.0 mg/kg/injection, schedule: Q01DX001 (ip), vehicle: saline 110 % of control | dose: 150.0 mg/kg/injection, schedule: Q04DX003 (ip), vehicle: saline 111 % of control

Nc1ncc(C=Nc2ccc(C(=O)O)cc2)c(N)n1
inactive: [2] 94 % of control | [3] 102 % of control

CCCCCCCCCCCCCCCCCCCC(=O)COS(C)(=O)=O
inactive: [4] 88 % of control | [5] 88 % of control | dose: 400.0 mg/kg/injection, schedule: Q04DX002 (ip), vehicle: Klucel (hydroxypropylcellulose) (HPC) 88 % of control

CC1C2C=CC(C2)C1C(=O)O (stereo unspecified)
inactive: [6] 98 % of control | [7] 96 % of control and 97 % of control and 88 % of control | [2] 96 % of control | [8] 89 % of control and 92 % of control and 91 % of control | [3] 96 % of control | [9] 99 % of control and 97 % of control

OC1CCN(C2(c3ccccc3)CCCCC2)CC1
inactive: [4] 104 % of control | [5] 86 % of control

O=C(NOC(=O)c1ccco1)c1ccccc1
inactive: [10] 97 % of control | [11] 113 % of control | [12] 104 % of control

CC(C#N)N(C)C (stereo unspecified)
inactive: dose: 5.0 mg/kg/injection, schedule: Q01DX001 (ip), vehicle: saline 96 % of control | dose: 10.0 mg/kg/injection, schedule: Q01DX001 (ip), vehicle: saline 104 % of control | dose: 10.0 mg/kg/injection, schedule: Q01DX009 (ip), vehicle: saline 98 % of control | dose: 20.0 mg/kg/injection, schedule: Q01DX001 (ip), vehicle: saline 102 % of control | dose: 20.0 mg/kg/injection, schedule: Q01DX009 (ip), vehicle: saline 109 % of control | dose: 40.0 mg/kg/injection, schedule: Q01DX009 (ip), vehicle: saline 98 % of control

O=C(Nc1cccc(F)c1)Nc1cc([N+](=O)[O-])ccc1Cl
inactive: [13] 97 % of control | [14] 94 % of control | dose: 400.0 mg/kg/injection, schedule: Q01DX009 (ip), vehicle: Klucel (hydroxypropylcellulose) (HPC) 94 % of control and 97 % of control

C/C(=N/Nc1ccc([N+](=O)[O-])cc1[N+](=O)[O-])c1ccccc1
inactive: [7] 88 % of control | [8] 93 % of control | [9] 90 % of control

O=C([O-])C[n+]1ccccc1
inactive: [15] 105 % of control | [16] 105 % of control | dose: 200.0 mg/kg/injection, schedule: Q01DX009 (ip), vehicle: saline 94 % of control | [17] 107 % of control | dose: 400.0 mg/kg/injection, schedule: Q01DX009 (ip), vehicle: saline 87 % of control | dose: 400.0 mg/kg/injection, schedule: Q04DX003 (ip), vehicle: saline 100 % of control

CCc1oc(N)nc1-c1ccccc1
inactive: [7] 105 % of control | [8] 101 % of control | [9] 97 % of control

O=C1CC2C3Nc4ccccc4C3CCN2C2=C1CC(OC(=O)c1ccccc1)CC2 (stereo unspecified)
inactive: dose: 12.5 mg/kg/injection, schedule: Q01DX009 (ip), vehicle: saline sonified 96 % of control | dose: 25.0 mg/kg/injection, schedule: Q01DX009 (ip), vehicle: saline sonified 98 % of control | dose: 50.0 mg/kg/injection, schedule: Q01DX009 (ip), vehicle: saline sonified 103 % of control | [10] 95 % of control

Cc1ccc(/C(=N\N=C(N)N)c2ccccc2)cc1
inactive: dose: 15.0 mg/kg/injection, schedule: Q01DX Z (ip), vehicle: saline 108 % of control | dose: 30.0 mg/kg/injection, schedule: Q01DX Z (ip), vehicle: saline 110 % of control | dose: 30.0 mg/kg/injection, schedule: Q01DX Z (oral), vehicle: other 105 % of control | dose: 60.0 mg/kg/injection, schedule: Q01DX Z (ip), vehicle: saline 109 % of control | dose: 60.0 mg/kg/injection, schedule: Q01DX Z (oral), vehicle: other 95 % of control

O=C(OCCN(CCOC(=O)c1ccc([N+](=O)[O-])cc1)c1c[nH]c(=O)[nH]c1=O)c1ccc([N+](=O)[O-])cc1
inactive: [18] 93 % of control | [19] 93 % of control | [20] 93 % of control | dose: 400.0 mg/kg/injection, schedule: Q01DX001 (ip), vehicle: saline 110 % of control

N#[N+]c1c(O)cc(S(=O)(=O)O)c2ccccc12
inactive: [15] 92 % of control | [16] 94 % of control | [17] 101 % of control

c1ccc(C2=NC(c3ccccc3)(C3(c4ccccc4)SCCCS3)CO2)cc1 (stereo unspecified)
inactive: dose: 75.0 mg/kg/injection, schedule: Q01DX009 (ip), vehicle: Klucel (hydroxypropylcellulose) (HPC) 101 % of control | [10] 102 % of control | dose: 150.0 mg/kg/injection, schedule: Q01DX009 (ip), vehicle: Klucel (hydroxypropylcellulose) (HPC) 98 % of control | [11] 105 % of control | dose: 300.0 mg/kg/injection, schedule: Q01DX009 (ip), vehicle: Klucel (hydroxypropylcellulose) (HPC) 90 % of control | [12] 102 % of control

CCN=C(c1ccc(NC(=O)c2ccc(C(=O)Nc3ccc(C(=NCC)N(CC)C(=O)NC(C)C)cc3)cc2)cc1)N(CC)C(=O)NC(C)C
inactive: dose: 6.0 mg/kg/injection, schedule: Q01DX015 (ip), vehicle: methylcellulose (MC) 89 % of control | dose: 25.0 mg/kg/injection, schedule: Q01DX015 (ip), vehicle: methylcellulose (MC) 102 % of control | dose: 37.0 mg/kg/injection, schedule: Q01DX015 (ip), vehicle: methylcellulose (MC) 96 % of control

CC#CCCC(=O)OCCCCC
inactive: dose: 100.0 mg/kg/injection, schedule: Q04DX002 (ip), vehicle: saline with Tween-80 97 % of control | dose: 200.0 mg/kg/injection, schedule: Q04DX002 (ip), vehicle: saline with Tween-80 102 % of control

Cc1ccc(S(=O)(=O)C2CCCCC2Cl)cc1 (stereo unspecified)
inactive: [6] 109 % of control | [2] 102 % of control | [3] 98 % of control

Nc1nc2[nH]cnc(=S)c2[nH]1
inactive: [1] 101 % of control

O=C1C=C2CCCC(=O)C2(Cc2ccccc2)CC1 (stereo unspecified)
inactive: dose: 100.0 mg/kg/injection, schedule: Q01DX009 (ip), vehicle: alcohol 103 % of control | dose: 200.0 mg/kg/injection, schedule: Q01DX009 (ip), vehicle: alcohol 92 % of control | dose: 400.0 mg/kg/injection, schedule: Q01DX009 (ip), vehicle: alcohol 96 % of control

CC1CC(C)(C)[N+](C)=C(CC(C)(C)O)O1 (stereo unspecified)
inactive: [16] 113 % of control

COC(OC)C1=CC(=O)NC(NC(=O)C(Cl)Cl)N1 (stereo unspecified)
inactive: [18] 92 % of control | [19] 98 % of control | [20] 95 % of control

COc1ccc(N=NN(C)C(C)=O)cc1
inactive: dose: 50.0 mg/kg/injection, schedule: Q01DX009 (ip), vehicle: Klucel (hydroxypropylcellulose) (HPC) 102 % of control | dose: 75.0 mg/kg/injection, schedule: Q01DX001 (ip), vehicle: Klucel (hydroxypropylcellulose) (HPC) 101 % of control | [13] 103 % of control | dose: 150.0 mg/kg/injection, schedule: Q01DX001 (ip), vehicle: Klucel (hydroxypropylcellulose) (HPC) 93 % of control | [14] 100 % of control | dose: 300.0 mg/kg/injection, schedule: Q01DX001 (ip), vehicle: Klucel (hydroxypropylcellulose) (HPC) 96 % of control
